Test results as given in patent US12030878B2 (BRISTOL-MYERS SQUIBB COMPANY, priority 2017, dated 2024).

Columns and labels:
Assay type in all cases: cell-based
human TLR7 = target: T1, human TLR7 (Homo sapiens, UniProt Q9NYK1); test: TLR7 inhibition reporter assay (HEK-Blue SEAP); details: HEK-Blue cells overexpressing human TLR7, stimulated with gardiquimod 7.5 μM, 22 hour incubation
T1 construct: host or cells: HEK-Blue cells
T1 sequence (Q9NYK1 27-1049): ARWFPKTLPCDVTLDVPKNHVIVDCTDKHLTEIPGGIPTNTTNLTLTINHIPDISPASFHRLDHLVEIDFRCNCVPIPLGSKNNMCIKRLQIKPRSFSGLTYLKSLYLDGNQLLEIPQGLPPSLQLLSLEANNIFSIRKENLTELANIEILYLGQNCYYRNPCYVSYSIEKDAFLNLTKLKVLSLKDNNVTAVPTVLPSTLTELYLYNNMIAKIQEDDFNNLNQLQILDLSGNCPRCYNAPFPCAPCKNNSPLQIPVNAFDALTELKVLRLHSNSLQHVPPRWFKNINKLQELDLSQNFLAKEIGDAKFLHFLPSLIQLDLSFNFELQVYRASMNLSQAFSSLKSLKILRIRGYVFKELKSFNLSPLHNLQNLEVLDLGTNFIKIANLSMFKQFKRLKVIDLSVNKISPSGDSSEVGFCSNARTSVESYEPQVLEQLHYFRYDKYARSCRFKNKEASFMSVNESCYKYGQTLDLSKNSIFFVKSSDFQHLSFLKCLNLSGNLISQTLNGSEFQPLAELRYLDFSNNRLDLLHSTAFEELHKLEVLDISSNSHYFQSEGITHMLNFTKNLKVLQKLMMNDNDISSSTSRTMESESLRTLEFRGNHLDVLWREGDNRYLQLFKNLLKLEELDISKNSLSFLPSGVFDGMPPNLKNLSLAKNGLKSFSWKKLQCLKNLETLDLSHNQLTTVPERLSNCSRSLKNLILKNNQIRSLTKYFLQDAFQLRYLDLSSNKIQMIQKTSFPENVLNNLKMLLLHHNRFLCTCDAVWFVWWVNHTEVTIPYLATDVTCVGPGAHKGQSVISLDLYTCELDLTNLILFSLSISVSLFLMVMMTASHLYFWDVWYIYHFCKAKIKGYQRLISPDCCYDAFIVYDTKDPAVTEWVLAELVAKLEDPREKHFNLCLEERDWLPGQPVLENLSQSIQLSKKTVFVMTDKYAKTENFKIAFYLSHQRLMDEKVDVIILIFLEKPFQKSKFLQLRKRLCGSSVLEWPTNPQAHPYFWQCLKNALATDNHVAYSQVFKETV
In short: (§1)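 SEAP read-out via HEK-Blue Detection medium after 22 h at 37 °C; percent inhibition relative to agonist-plus-DMSO and known-inhibitor wells. Agonists: TLR7 gardiquimod 7.5 μM, TLR8 R848 15.9 μM, TLR9 ODN2006 5 nM. Dose range 0.05 nM–50 μM, 30 min compound pre-treatment at RT.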

human TLR9 = target: T2, human TLR9 (Homo sapiens, UniProt Q9NR96); test: TLR9 inhibition reporter assay (HEK-Blue SEAP); details: HEK-Blue cells overexpressing human TLR9, stimulated with ODN2006 5 nM, 22 hour incubation
T2 construct: host or cells: HEK-Blue cells
T2 sequence (Q9NR96 26-1032): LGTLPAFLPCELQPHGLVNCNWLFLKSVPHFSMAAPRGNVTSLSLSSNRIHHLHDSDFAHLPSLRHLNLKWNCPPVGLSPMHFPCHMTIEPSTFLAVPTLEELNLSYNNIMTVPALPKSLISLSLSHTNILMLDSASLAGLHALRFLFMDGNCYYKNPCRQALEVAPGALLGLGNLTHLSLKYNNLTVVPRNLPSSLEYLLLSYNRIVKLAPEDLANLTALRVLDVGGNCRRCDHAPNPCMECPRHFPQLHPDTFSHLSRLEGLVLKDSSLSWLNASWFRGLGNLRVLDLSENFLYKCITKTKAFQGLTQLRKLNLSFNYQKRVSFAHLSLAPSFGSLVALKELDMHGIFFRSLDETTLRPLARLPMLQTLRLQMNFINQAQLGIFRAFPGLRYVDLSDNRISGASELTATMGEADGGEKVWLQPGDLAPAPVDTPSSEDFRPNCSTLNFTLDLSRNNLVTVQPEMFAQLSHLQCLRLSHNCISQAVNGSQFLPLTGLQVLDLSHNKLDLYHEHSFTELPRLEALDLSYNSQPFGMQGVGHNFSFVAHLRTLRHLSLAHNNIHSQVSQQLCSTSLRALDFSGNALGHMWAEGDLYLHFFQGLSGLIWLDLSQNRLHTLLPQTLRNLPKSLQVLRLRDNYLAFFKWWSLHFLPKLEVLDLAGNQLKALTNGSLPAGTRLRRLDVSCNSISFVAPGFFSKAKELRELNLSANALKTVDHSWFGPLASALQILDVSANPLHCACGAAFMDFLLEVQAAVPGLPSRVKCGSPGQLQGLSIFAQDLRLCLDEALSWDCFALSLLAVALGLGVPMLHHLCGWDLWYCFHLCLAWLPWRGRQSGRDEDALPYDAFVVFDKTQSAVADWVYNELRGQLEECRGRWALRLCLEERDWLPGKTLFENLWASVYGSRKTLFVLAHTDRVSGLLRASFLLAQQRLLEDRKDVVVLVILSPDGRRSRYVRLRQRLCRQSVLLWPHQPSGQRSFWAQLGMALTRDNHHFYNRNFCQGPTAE
In short: as §1

human TLR8 = target: T3, human TLR8 (Homo sapiens, UniProt Q9NR97); test: TLR8 inhibition reporter assay (HEK-Blue SEAP); details: HEK-Blue cells overexpressing human TLR8, stimulated with R848 15.9 μM, 22 hour incubation
T3 construct: host or cells: HEK-Blue cells
T3 sequence (Q9NR97 27-1041): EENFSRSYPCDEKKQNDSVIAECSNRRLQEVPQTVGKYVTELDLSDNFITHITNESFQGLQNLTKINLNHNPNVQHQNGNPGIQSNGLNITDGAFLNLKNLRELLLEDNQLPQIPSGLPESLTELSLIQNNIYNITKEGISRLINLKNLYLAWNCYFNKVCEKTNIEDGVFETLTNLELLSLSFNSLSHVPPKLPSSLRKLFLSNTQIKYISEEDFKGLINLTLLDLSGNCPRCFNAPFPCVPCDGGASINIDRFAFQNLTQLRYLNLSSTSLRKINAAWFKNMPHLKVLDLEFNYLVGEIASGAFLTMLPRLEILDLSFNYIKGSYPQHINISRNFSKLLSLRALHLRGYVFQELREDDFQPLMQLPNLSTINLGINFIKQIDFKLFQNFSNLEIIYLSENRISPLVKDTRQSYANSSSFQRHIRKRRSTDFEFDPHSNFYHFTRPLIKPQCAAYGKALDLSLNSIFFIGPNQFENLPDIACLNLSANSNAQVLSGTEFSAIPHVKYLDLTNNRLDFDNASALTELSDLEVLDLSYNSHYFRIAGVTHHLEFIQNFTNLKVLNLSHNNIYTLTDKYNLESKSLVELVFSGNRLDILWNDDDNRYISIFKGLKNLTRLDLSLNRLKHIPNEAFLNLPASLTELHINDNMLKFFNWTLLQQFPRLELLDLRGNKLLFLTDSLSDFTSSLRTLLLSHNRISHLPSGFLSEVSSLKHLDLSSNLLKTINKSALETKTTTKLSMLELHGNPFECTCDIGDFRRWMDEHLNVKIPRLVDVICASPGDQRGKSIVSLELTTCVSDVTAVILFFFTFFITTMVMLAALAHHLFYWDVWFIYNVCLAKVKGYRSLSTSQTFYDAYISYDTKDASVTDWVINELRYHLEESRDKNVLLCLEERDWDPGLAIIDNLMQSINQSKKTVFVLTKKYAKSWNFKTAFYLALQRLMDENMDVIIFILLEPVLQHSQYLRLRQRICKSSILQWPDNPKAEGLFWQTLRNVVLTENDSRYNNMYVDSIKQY
In short: as §1

Compound | IC50 (human TLR7) | IC50 (human TLR9) | IC50 (human TLR8)
Cc1cc(-c2[nH]c3ccc(OCC4CCCN(C)C4)cc3c2C(C)C)cc(C)n1 (stereo not drawn) [Example 30, 2-(2,6-dimethylpyridin-4-yl)-3-isopropyl-5-((1-methylpiperidin-3-yl)methoxy)-1H-indole] | 2.3 nM | 304 nM | 2.6 nM
Cc1cc(-c2[nH]c3ccc(OCC4CCCNC4)cc3c2C(C)C)ccn1 (stereo not drawn) [Example 180, 3-isopropyl-2-(2-methylpyridin-4-yl)-5-(piperidin-3-ylmethoxy)-1H-indole] | 37.7 nM | 1830 nM | 3.5 nM
Cc1cc(-c2[nH]c3ccc(OCC(=O)N4CCCC5(CNC5)C4)cc3c2C(C)C)ccn1 [Example 140, 2-((3-isopropyl-2-(2-methylpyridin-4-yl)-1H-indol-5-yl)oxy)-1-(2,6-diazaspiro[3.5]nonan-6-yl)ethan-1-one] | 629 nM | 886 nM | 216 nM
COc1ccc(-c2[nH]c3ccc(OCC(=O)NC4CCNCC4)cc3c2C(C)C)cc1OC [Example 136, 2-((2-(3,4-dimethoxyphenyl)-3-isopropyl-1H-indol-5-yl)oxy)-N-(piperidin-4-yl)acetamide] | 126 nM | 777 nM | 37 nM
COc1ccc(-c2[nH]c3ccc(O[C@H]4CCNC4)cc3c2C(C)C)cc1OC [Example 170, (S)-2-(3,4-dimethoxyphenyl)-3-isopropyl-5-(pyrrolidin-3-yloxy)-1H-indole] | 83.9 nM | 1080 nM | 31.3 nM
COc1ccc(-c2[nH]c3ccc(OCC(=O)NCC(C)(C)O)cc3c2C(C)C)cc1OC [Example 150, 2-((2-(3,4-dimethoxyphenyl)-3-isopropyl-1H-indol-5-yl)oxy)-N-(2-hydroxy-2-methylpropyl)acetamide] | 302 nM | > 50000 nM | 947 nM
Cc1cc(-c2[nH]c3ccc(OCc4ccccc4)cc3c2C(C)C)ccn1 [Example 165, 5-(benzyloxy)-3-isopropyl-2-(2-methylpyridin-4-yl)-1H-indole] | 5920 nM | > 50000 nM | 1290 nM

The remaining lines, values ahead:

IC50 (human TLR7) | IC50 (human TLR9) | IC50 (human TLR8) | Compound
0.6 nM | 1030 nM | 1.4 nM | Cc1cc(-c2[nH]c3ccc(OCC4CCN(C5CCOCC5)CC4)cc3c2C(C)C)cn2ncnc12 [Example 44, 6-(3-isopropyl-5-((1-(tetrahydro-2H-pyran-4-yl)piperidin-4-yl)methoxy)-1H-indol-2-yl)-8-methyl-[1,2,4]triazolo[1,5-a]pyridine]
27.8 nM | 1290 nM | 33.4 nM | Cc1cc(-c2[nH]c3ccc(OC4CCCNC4)cc3c2C(C)C)ccn1 (stereo not drawn) [Example 177, 3-isopropyl-2-(2-methylpyridin-4-yl)-5-(piperidin-3-yloxy)-1H-indole]
0.9 nM | 1620 nM | 1 nM | Cc1cc(-c2[nH]c3ccc(OC4CCN(C)CC4)cc3c2C(C)C)cn2ncnc12 [Example 32, 6-(3-isopropyl-5-((1-methylpiperidin-4-yl)oxy)-1H-indol-2-yl)-8-methyl-[1,2,4]triazolo[1,5-a]pyridine]
0.3 nM | 1750 nM | 0.5 nM | COc1cc(-c2[nH]c3ccc(OC4CCN(C)CC4)cc3c2C(C)C)cn2ncnc12 [Example 65, 6-(3-isopropyl-5-((1-methylpiperidin-4-yl)oxy)-1H-indol-2-yl)-8-methoxy-[1,2,4]triazolo[1,5-a]pyridine]
2.9 nM | 2830 nM | 1.4 nM | Cc1cc(-c2[nH]c3ccc(OC4CCN(CC(C)C)CC4)cc3c2C(C)C)cn2ncnc12 [Example 77, 6-(5-((1-isobutylpiperidin-4-yl)oxy)-3-isopropyl-1H-indol-2-yl)-8-methyl-[1,2,4]triazolo[1,5-a]pyridine]
0.5 nM | 419 nM | 10.4 nM | Cc1cc(-c2[nH]c3ccc(OC4CCN(C(=O)CN(C)C)CC4)cc3c2C(C)C)cc(C)n1 [Example 95, 2-(dimethylamino)-1-(4-((2-(2,6-dimethylpyridin-4-yl)-3-isopropyl-1H-indol-5-yl)oxy)piperidin-1-yl)ethanone]
0.8 nM | 2480 nM | 1 nM | Cc1cc(-c2[nH]c3ccc(OC4CCN(C(C)C)CC4)cc3c2C(C)C)cn2ncnc12 [Example 47, 6-(3-isopropyl-5-((1-isopropylpiperidin-4-yl)oxy)-1H-indol-2-yl)-8-methyl-[1,2,4]triazolo[1,5-a]pyridine]
12.8 nM | 46800 nM | 56.3 nM | Cc1cc(-c2[nH]c3ccc(O[C@H]4CCCN(C)C4)cc3c2C(C)C)cn(C)c1=O [Example 37, (S)-5-(3-isopropyl-5-((1-methylpiperidin-3-yl)oxy)-1H-indol-2-yl)-1,3-dimethylpyridin-2(1H)-one]
2.5 nM | 8190 nM | 0.5 nM | Cc1cc(-c2[nH]c3ccc(OC4CCN(C5CCOCC5)CC4)cc3c2C(C)C)cn(C)c1=O [Example 39, 5-(3-isopropyl-5-((1-(tetrahydro-2H-pyran-4-yl)piperidin-4-yl)oxy)-1H-indol-2-yl)-1,3-dimethylpyridin-2(1H)-one]
